Experimental data as given in article PMC3014376 (Vaccine, 2010).
Residues, ends and D or L forms follow the SMILES beside them.

Columns and labels:
Assay in all cases: MHC-peptide binding assay
HLA-A*6802 = HLA-A*6802 (Homo sapiens, UniProt P04439, A269V/D140Y/D185E/E176V/E277Q/E87N/F33Y/G231S/I121R/I166T/I218V/L180W/L300P/L318F/N151K/P208A/P217A/Q86R/R138H/R169H/S129P/T345S/V36M)
HLA-A*0206 = HLA-A*0206 (Homo sapiens, UniProt P04439, D140Y/D185E/D98H/E176V/E277Q/F33Y/G131W/G231S/I119V/I121R/I166T/I218V/L300P/L318F/N151K/N90K/P208A/P217A/Q86G/Q94H/R138H/R169H/T345S)
HLA-A*0202 = HLA-A*0202 (Homo sapiens, UniProt P04439, D140Y/D185E/D98H/E176V/E277Q/G131W/G231S/I119L/I121R/I166T/I218V/L180W/L300P/L318F/N151K/N90K/P208A/P217A/Q67R/Q86G/Q94H/R138H/R169H/T345S)

SMILES	IC50 (HLA-A*6802) [nM]	IC50 (HLA-A*0206) [nM]	IC50 (HLA-A*0202) [nM]
CC[C@H](C)[C@H](NC(=O)[C@@H](NC(=O)[C@H](CC(C)C)NC(=O)[C@H](CC(C)C)NC(=O)[C@H](CO)NC(=O)[C@H](CC(C)C)NC(=O)[C@H](CO)NC(=O)[C@H](CC(C)C)NC(=O)[C@@H](N)Cc1ccccc1)C(C)C)C(=O)O [SAG2C38–46] (H-FLSLSLLVI-OH)	9830	> 10000	–
CC[C@H](C)[C@H](NC(=O)[C@H](CCSC)NC(=O)[C@@H](N)Cc1ccccc1)C(=O)N[C@@H](C)C(=O)N[C@@H](Cc1ccccc1)C(=O)N[C@H](C(=O)N[C@@H](CO)C(=O)N[C@@H](CS)C(=O)N[C@@H](Cc1ccccc1)C(=O)N[C@@H](C)C(=O)O)[C@@H](C)CC [SAG2D180–189] (H-FMIAFISCFA-OH)	397	112	56
CC[C@H](C)[C@H](N)C(=O)N[C@H](C(=O)N[C@@H](CCSC)C(=O)NCC(=O)N[C@@H](CO)C(=O)N[C@@H](CC(C)C)C(=O)N[C@@H](Cc1ccccc1)C(=O)N[C@@H](Cc1ccccc1)C(=O)N[C@H](C(=O)O)C(C)C)[C@@H](C)O [SPA12–20] (H-ITMGSLFFV-OH)	1.1	0.26	0.64
CC[C@H](C)[C@H](NC(=O)[C@H](Cc1ccc(O)cc1)NC(=O)[C@H](CC(=O)O)NC(=O)[C@@H](NC(=O)[C@H](CC(C)C)NC(=O)[C@@H](N)Cc1ccccc1)[C@@H](C)O)C(=O)N1CCC[C@H]1C(=O)NCC(=O)N[C@@H](C)C(=O)O [SAG3_136–144] (H-FLTDYIPGA-OH)	2100	1.2	7.1
CC(C)C[C@H](NC(=O)CNC(=O)[C@H](CC(C)C)NC(=O)[C@H](CC(C)C)NC(=O)[C@@H](N)Cc1ccccc1)C(=O)N[C@@H](CC(C)C)C(=O)N[C@H](C(=O)N[C@@H](Cc1c[nH]cn1)C(=O)N[C@H](C(=O)O)C(C)C)C(C)C [SAG3_375–383] (H-FLLGLLVHV-OH)	173	9.9	37
CC[C@H](C)[C@H](NC(=O)[C@@H](NC(=O)[C@@H](N)Cc1ccccc1)C(C)C)C(=O)N[C@@H](Cc1ccccc1)C(=O)N[C@@H](C)C(=O)N[C@@H](CS)C(=O)N[C@@H](CC(N)=O)C(=O)N[C@@H](Cc1ccccc1)C(=O)N[C@H](C(=O)O)C(C)C [SAG2X44–52] (H-FVIFACNFV-OH)	1.2	5.6	–
CC(C)C[C@H](NC(=O)CN)C(=O)N[C@@H](C)C(=O)N[C@@H](C)C(=O)N[C@@H](C)C(=O)N[C@H](C(=O)N[C@H](C(=O)N[C@@H](C)C(=O)N[C@H](C(=O)O)C(C)C)C(C)C)C(C)C [SPA82–90] (H-GLAAAVVAV-OH)	263	55	–
CC[C@H](C)[C@H](NC(=O)[C@H](CO)NC(=O)[C@@H](NC(=O)[C@@H](NC(=O)[C@H](CCSC)NC(=O)[C@@H](N)Cc1ccccc1)[C@@H](C)CC)C(C)C)C(=O)N[C@@H](CO)C(=O)N[C@@H](CC(C)C)C(=O)N[C@H](C(=O)O)C(C)C [SAG2X351–359] (H-FMIVSISLV-OH)	48	6.2	1.8
